The record followed here is patent US9249105B2, “Crystalline forms of an alkoxyimidazol-1-ylmethyl biphenyl carboxylic acid” (Theravance Biopharma R&D IP, LLC, priority 2010, dated 2016).

Structures can show the parent of a compound that is named as a salt. Where only a bound is given, the exact number is not on record here.

One may read the Ki as a measure of affinity in units of concentration, obtained from inhibition or displacement. A higher Ki goes with a looser hold on the target.

Series [1] can be described thus: Differential scanning calorimetry (thermal stability). Type of series: physicochemical. To be noted: heating ramp 10° C./min. How it is done:
Differential scanning calorimetry (DSC) experiments were performed using a TA Instruments Model Q-100 module with a Thermal Analyst controller. Data were collected and analyzed using TA Instruments Universal Analysis software. A sample of each crystalline form was accurately weighed into a covered aluminum pan. After a 5 minute isothermal equilibration period at 5° C., the sample was heated using a linear heating ramp of 10° C./min from 0° C. to 200° C.
On the technique in general: In DSC, transitions show as peaks or steps in heat flow.

A short description of series [2]: Dynamic moisture sorption (DMS) assessment. Conditions: 25° C. Type of series: physicochemical. The protocol:
Dynamic moisture sorption (DMS) measurements were performed for each crystalline form using a VTI atmospheric microbalance, SGA-100 system (VTI Corp., Hialeah, Fla. 33016). A weighed sample was used and the humidity was set at the ambient value at the start of the analysis. The DMS analysis consisted of a scan rate of 5% RH/step over the full humidity range of 5% RH to 90% RH. The DMS run was performed isothermally at 25° C.

A short description of series [3]: Thermal stability on storage, purity by HPLC. It counts as physicochemical. To be noted: 40° C. (open container), 75% relative humidity, one month; for Purity Change: HPLC area percentage (% AUC). The protocol:
Weighed samples of the crystalline materials were stored at 40° C. (open container) and 75% relative humidity, for one month. The samples were then analyzed by the following HPLC method:
Column: Agilent Zorbox SB-C18, 4.6×250 mm, 5 μm (Part No. 880975-902). Mobile Phase A: 80% H2O, 20% MeCN, 0.01% TFA. Mobile Phase B: 80% MeCN, 20% H2O, 0.01% TFA. Flow rate: 1 mL/min. Injection Volume: 20 μL. Detector: 250 nm.
The purity of the samples was determined by HPLC area percentage (% AUC).

A short description of series [4]: Solubility in buffers over 24 hours. Conditions: pH>3, room temperature, FIG. 16. Type of series: physicochemical. How it is done:
Samples of the crystalline materials were evaluated over a 24 hour period at several pH ranges. The following buffer systems were used: • HCl buffer pH @ 1.15 • HCl buffer pH @ 1.94 • Potassium biphthate buffer pH @ 2.97 • Acetate buffer pH @ 4.17 • Acetate buffer pH @ 5.16 • Phosphate buffer pH @ 6.04 • Phosphate buffer pH @ 7.0
Samples (7-8 mg) of the crystalline materials were combined with 2 mL of each of the buffers in a 5 mL glass vial. The vials were then mounted onto an automatic rotator and rotate for 24 hours at room temperature. The resulting suspensions were filtered using a 0.45 μm filter (PVDF membrane) into a clean vial for HPLC analysis.

For series [5], the target named is T1, AT1 receptor (Homo sapiens, UniProt P30556).
T1 sequence (P30556 1-359): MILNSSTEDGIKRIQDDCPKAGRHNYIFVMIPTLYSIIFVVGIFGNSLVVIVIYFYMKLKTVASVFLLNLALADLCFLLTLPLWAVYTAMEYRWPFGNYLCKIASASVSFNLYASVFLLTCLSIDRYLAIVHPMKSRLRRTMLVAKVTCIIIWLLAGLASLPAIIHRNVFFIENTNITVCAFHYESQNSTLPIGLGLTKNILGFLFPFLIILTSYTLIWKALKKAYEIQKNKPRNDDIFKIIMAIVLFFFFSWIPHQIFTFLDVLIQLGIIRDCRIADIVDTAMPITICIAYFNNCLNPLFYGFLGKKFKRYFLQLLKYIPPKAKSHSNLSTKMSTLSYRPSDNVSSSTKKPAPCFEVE
Nature of the series: AT1 receptor binding (inhibitory constant).

Series [6] can be described thus: Reslurrying of hemiedisylate salt form I and form II. It counts as physicochemical. Conditions: EtOH/MTBE with or without water, room temperature. The protocol: Hemiedisylate salt form II (50 mg, 80 μmol) and hemiedisylate salt form I (50 mg, 80 μmol) were combined with a premixed solution of EtOH (420 μL) and MTBE (1.6 mL, 13 mmol). The mixture was capped and stirred at room temperature. The resulting solids were filtered and washed with dioxane to yield a solid (86 mg), which was determined to be hemiedisylate salt form II.
Hemiedisylate salt form II (50 mg, 80 μmol) and hemiedisylate salt form I (50 mg, 80 μmol) were combined with a premixed solution of EtOH (420 μL) and MTBE (1.6 mL, 13 mmol). Water (20 μL) was added and the mixture was capped and stirred at room temperature. The resulting solids were filtered and washed with dioxane to yield a solid (67 mg), which was determined to be hemiedisylate salt form II.

Turning to `CCOc1nc(CC)c(CNC(=O)[C@@H](S)CC(C)C)n1Cc1ccc(-c2ccccc2C(=O)O)cc1F` [hemiedisylate salt form I, Crystalline Hemiedisylate Salt Form I of 4′-{2-Ethoxy-4-ethyl-5-[((S)-2-mercapto-4-methylpentanoylamino)methyl]imidazol-1-ylmethyl}-3′-fluorobiphenyl-2-carboxylic Acid], the “temperature below which no significant thermal decomposition is seen (DSC)” value in series [1] is at least 158 °C. In series [2] (5% RH to 90% RH), the “weight gain, humidity range 5% RH up to 90% RH” value (shortened to “weight gain … to 90% RH”) was “about 0.38%”. In addition, the “weight gain when exposed to up to 70% RH” value in series [2] is given as “less than 0.26%”.
Turning to `CCOc1nc(CC)c(CNC(=O)[C@@H](S)CC(C)C)n1Cc1ccc(-c2ccccc2C(=O)O)cc1F` [freebase form, 4′-{2-ethoxy-4-ethyl-5-[((S)-2-mercapto-4-methylpentanoylamino)methyl]imidazol-1-ylmethyl}-3′-fluorobiphenyl-2-carboxylic acid, reference compound], in series [3], the “Purity Change” value is reported as −2.9%.
As for `CCOc1nc(CC)c(CNC(=O)[C@@H](S)CC(C)C)n1Cc1ccc(-c2ccccc2C(=O)O)cc1F` [heminapadisylate form, Crystalline Heminapadisylate Salt of 4′-{2-Ethoxy-4-ethyl-5-[((S)-2-mercapto-4-methylpentanoylamino)methyl]imidazol-1-ylmethyl}-3′-fluorobiphenyl-2-carboxylic Acid], in series [3], the “thermal stability on storage” value is listed as “more stable than the previously known freebase form” and the “Purity Change” value is listed as −0.1%. In series [1], the “temperature below which no significant thermal decomposition is seen (DSC)” value is at least 181 °C. Besides, in series [2] (5% RH to 90% RH), the “weight gain … to 90% RH” value is on record as “about 0.97%”. Besides, the “weight gain when exposed to up to 70% RH” value in series [2] is “less than 0.68%”. Further, the “solubility compared with the freebase” value in series [4] is “more soluble than the freebase”.
For the compound `CCOc1nc(CC)c(CNC(=O)[C@@H](S)CC(C)C)n1Cc1ccc(-c2ccccc2C(=O)O)cc1F` [compound of formula I, 4′-{2-ethoxy-4-ethyl-5-[((S)-2-mercapto-4-methylpentanoylamino)methyl]imidazol-1-ylmethyl}-3′-fluorobiphenyl-2-carboxylic acid], the Ki in series [5] was at most 100 nM.
Take `CCOc1nc(CC)c(CNC(=O)[C@@H](S)CC(C)C)n1Cc1ccc(-c2ccccc2C(=O)O)cc1F` [mono-oxalate salt, Crystalline Mono-oxalate Salt of 4′-{2-Ethoxy-4-ethyl-5-[((S)-2-mercapto-4-methylpentanoylamino)methyl]imidazol-1-ylmethyl}-3′-fluorobiphenyl-2-carboxylic Acid]: the “temperature below which no significant thermal decomposition is seen (DSC)” value in series [1] is at least 140 °C. For the same compound, the “DMS moisture sorption/desorption behaviour” value in series [2] (5% RH to 90% RH) was “picks up moisture gradually from 5% RH to 90% RH, and loses the moisture during drying segment”.
Consider `CCOc1nc(CC)c(CNC(=O)[C@@H](S)CC(C)C)n1Cc1ccc(-c2ccccc2C(=O)O)cc1F` [hemiedisylate form II, Crystalline Hemiedisylate Salt Form II of 4′-{2-Ethoxy-4-ethyl-5-[((S)-2-mercapto-4-methylpentanoylamino)methyl]imidazol-1-ylmethyl}-3′-fluorobiphenyl-2-carboxylic Acid], for which, in series [3], the “thermal stability on storage” value is recorded as “more stable than the previously known freebase form” and the “Purity Change” value was −0.3%. In series [1], the “temperature below which no significant thermal decomposition is seen (DSC)” value is at least 182 °C. Further, the “weight gain … to 90% RH” value in series [2] (5% RH to 90% RH) is listed as “about 0.16%”. Besides, the “weight gain when exposed to up to 70% RH” value in series [2] is given as “less than 0.10%”. Moreover, in series [4], the “solubility compared with the freebase” value is “more soluble than the freebase”. Also, the “relative stability of crystalline forms on reslurrying” value in series [6] is listed as “more stable than crystalline hemiedisylate salt form I”.
